Data taken from patent US20220331247A1, “Polymeric micelle, methods of production and uses thereof” (Association for the Advancement of Tissue Engineering and …, priority 2019, published 2022).

Tests used:
IL-6 = IL-6 quantified in the medium, co-culture system; type: cell-based, human; conditions: untreated maximum about 1.2 μg/mL
Experimental: (§1) In an embodiment, the biological effects of dexamethasone (Dex) in monocultures and co-culture of hACs and THP-1 were analysed. To compare the biological effects of free Dex and the polymeric micelles encapsulating Dex, monoculture and co-culture systems of hACs and stimulated M1 macrophages were used. Three different conditions were tested: (i) no treatment (Ctr), (ii) treatment with micelles encapsulating Dex (Mic+Dex), and (iii) treatment with free Dex (Dex). The concentration of Dex was […], and in the co-culture system, 50 mU of GR was added.
TNF-α and IL-6 cytokines (FIGS. 5C and D, respectively) were quantified in the medium. […] This may be explained due to the controlled release of Dex from the polymeric micelles over the time. With regard to IL-6, the establishment of the co-culture system increased IL-6 amount to a maximum of about 1.2 μg/mL. In this case, both the polymeric micelles with encapsulated Dex and free Dex were able to effectively reduce the amount of IL-6 in the medium to about 0.1 μg/mL.
(§2) The samples were analyzed for (i) cell viability, (ii) cell proliferation, (C) TNF-α concentration, and (D) IL-6 concentration. The alphabet “a” denotes significant difference compared to the hACs Ctr, “b” denotes significant difference compared to the THP-1 Ctr, and “c” denotes significant difference as compared to the co-culture Ctr where p<0.01.

[1] = system: hACs cultured in monolayer; assay: Biological effects of Dex treatments in hACs monoculture; type: cell-based, human; conditions: Dex 100 WI
Experimental: as §1, §2

C[C@@H]1C[C@H]2[C@@H]3CCC4=CC(=O)C=C[C@]4(C)[C@@]3(F)[C@@H](O)C[C@]2(C)[C@@]1(O)C(=O)CO [Dex, dexamethasone]
amount of IL-6 in the medium after treatment (IL-6): about 0.1 μg/mL
hACs' viability and proliferation vs Ctr [1]: significantly reduced
